# Measured values from publication PMC12340723, “Validation of Hv1 channel functions in BV2 microglial cells using small molecule modulators” (Frontiers in Cellular Neuroscience, 2025).
# Tests used:
# [1] = target: T1, Voltage-gated proton channel Hv1 (Mus musculus, UniProt Q3U2S8); test: whole-cell patch clamp at +[…] mV in BV2 cells (activator); BCECF pH-recovery assay, effect abolished by Hv1 shRNA; format: cell-based
# T1 construct: gene Hvcn1; endogenous Hv1 in BV2 microglial cells
# T1 sequence (Q3U2S8 1-269): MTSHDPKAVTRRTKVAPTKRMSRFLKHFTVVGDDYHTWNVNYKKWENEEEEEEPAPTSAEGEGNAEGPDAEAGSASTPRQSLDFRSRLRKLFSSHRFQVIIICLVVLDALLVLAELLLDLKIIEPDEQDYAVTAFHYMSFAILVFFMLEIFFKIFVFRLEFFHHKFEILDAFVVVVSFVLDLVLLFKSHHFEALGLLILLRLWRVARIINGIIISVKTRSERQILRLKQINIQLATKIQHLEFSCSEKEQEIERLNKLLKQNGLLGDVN
# [2] = target: T1, Voltage-gated proton channel Hv1; test: whole-cell patch clamp at +[…] mV in BV2 cells; BCECF pH-recovery assay, effect abolished by Hv1 shRNA; format: cell-based
Structure (SMILES),EC50 [1],IC50 [2]
O=C(CC1Sc2ccccc2NC1=O)Nc1ccccc1Cl (centres unmarked) [S-023-0515],8.41 ± 1.9 µM,
O=C(CC1Sc2ccccc2NC1=O)Nc1ccc(Cl)cc1 (centres unmarked) [YHV98-4],,2.6 ± 1.1 µM
